{"source": "patent US12568967B2", "about": "“Compositions comprising pyridine carboxylate herbicides with synthetic auxin herbicides or auxin transport inhibitors” (priority 2018, dated 2026)", "key": {"[1]": {"test_system": "Brassica napus (winter rape, BRSNW)", "assay": "Greenhouse postemergence trial BRSNW", "assay_type": "in vivo", "conditions": "Brassica napus, post-emergence, read-out: % visual injury Obs"}, "[2]": {"test_system": "Polygonum convolvulus (wild buckwheat, POLCO)", "assay": "Greenhouse postemergence trial POLCO", "assay_type": "in vivo", "conditions": "Fallopia convolvulus, post-emergence, read-out: % visual injury Obs"}, "[3]": {"test_system": "Cirsium arvense (Canadian thistle, CIRAR)", "assay": "Greenhouse postemergence trial CIRAR", "assay_type": "in vivo", "conditions": "Cirsium arvense, post-emergence; CIRAR; Aminopyralid 10 g/ha; read-out: % visual injury Obs", "description": "(§1) Seeds of the desired test plant species were planted in a 90:10% v/v (volume/volume) mixture of PRO-MIX® BX (Premier Tech Horticulture, Quakertown, PA, USA) and PROFILE® GREENS GRADE™ (Profile Products LLC, Buffalo Grove, IL, USA) planting mixture, which typically has a pH of 5.2 to 6.2 and an organic matter content of at least 50 percent, in plastic pots with a surface area of 103.2 square centimeters (cm^2). […] The plants were grown for 7-36 days (d) in a greenhouse with an approximate 14-hour (h) photo-period which was maintained at about 23° C. during the day and 22° C. during the night. Nutrients and water were added on a regular basis and supplemental lighting was provided with overhead metal halide 1000-Watt lamps as necessary. The plants were employed for testing when they reached the second or third true leaf stage.\n(§2) Emulsifiable concentrates of each of each pyridine carboxylate herbicide (Compound A or Compound B) were prepared at 100 grams acid equivalent per liter (g ae/L). The emulsifiable concentrates also included a safener, cloquintocet-mexyl, at 120 grams active ingredient per liter (g ai/L), unless otherwise noted below. An aliquot of each emulsifiable concentrate was placed in a 25 mL glass vial and diluted with an aqueous mixture of 1.25% (v/v) ACTIROB® B esterified rapeseed oil (Bayer Crop Science, Research Triangle Park, NC, USA) or MSO® Concentrate with LECI-TECH® methylated soybean oil (Loveland Products, Loveland, CO, USA) to obtain concentrated stock solutions at the highest application rate for each herbicide, based upon a 12 milliliter (mL) application volume at a rate of 187 liters per hectare (L/ha). The concentrated stock solutions were further diluted with an aqueous mixture of 1.25% v/v ACTIROB® B or MSO® Concentrate with LECI-TECH® to obtain stock solutions at reduced application rates for each herbicide. Spray solutions of the herbicide combinations (Compound A or Compound B plus synthetic auxin herbicide or auxin transport inhibitor) were prepared by adding weighed amounts or aliquots of the synthetic auxin herbicide or auxin transport inhibitor to the stock solutions of Compound A or Compound B to form 12-mL spray solutions in two-way combinations.\n(§3) The spray solutions were applied to the plant material with an overhead Mandel track sprayer equipped with 8002E nozzles calibrated to deliver 187 L/ha over an application area of 0.503 square meters (m^2) at a spray height of 18 inches (43 centimeters (cm)) above the average plant canopy. Control plants were sprayed in the same manner with the solvent blank. All pyridine carboxylate herbicide (component a) application rates are given as “g ae/ha” and all synthetic auxin herbicide or auxin transport inhibitor (component b) application rates are given as “g ai/ha.”\n(§4) The treated plants and control plants were placed in a greenhouse as described above and watered by sub-irrigation to prevent wash-off of the test compounds. After 20-22 d, the condition of the test plants as compared with that of the control plants was determined visually and scored on a scale of 0 to 100 percent where 0 corresponds to no injury and 100 corresponds to complete kill."}, "[4]": {"test_system": "Sinapis arvensis (wild mustard, SINAR)", "assay": "Greenhouse postemergence trial SINAR", "assay_type": "in vivo", "conditions": "Mutarda arvensis, post-emergence; SINAR; Aminopyralid 10 g/ha; read-out: % visual injury Obs", "description": "(§5) The plants were grown for 7-36 days (d) in a greenhouse with an approximate 14-hour (h) photo-period which was maintained at about 23° C. during the day and 22° C. during the night. Nutrients and water were added on a regular basis and supplemental lighting was provided with overhead metal halide 1000-Watt lamps as necessary. The plants were employed for testing when they reached the second or third true leaf stage.\n(§6) The emulsifiable concentrates also included a safener, cloquintocet-mexyl, at 120 grams active ingredient per liter (g ai/L), unless otherwise noted below.\n(§7) Control plants were sprayed in the same manner with the solvent blank. All pyridine carboxylate herbicide (component a) application rates are given as “g ae/ha” and all synthetic auxin herbicide or auxin transport inhibitor (component b) application rates are given as “g ai/ha.”\nas §4"}, "[5]": {"test_system": "Salsola kali (Russian thistle, SASKR)", "assay": "Greenhouse postemergence trial SASKR;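 note: greenhouse plants sprayed at second or third true leaf stage, injury rated by eye after 20-22 d against solvent-blank controls, 0 meaning no injury, 100 complete kill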", "assay_type": "in vivo", "conditions": "Salsola kali, post-emergence; SASKR; Aminopyralid 10 g/ha; read-out: % visual injury Obs", "description": "as §5, §6, §7, §4"}, "[6]": {"test_system": "Kochia scoparia (kochia, KCHSC)", "assay": "Greenhouse postemergence trial KCHSC", "assay_type": "in vivo", "conditions": "Bassia scoparia, post-emergence; KCHSC; Aminopyralid 10 g/ha; read-out: % visual injury Obs", "description": "as §1, §2, §3, §4"}, "[7]": {"test_system": "Matricaria chamomilla (wild chamomile, MATCH)", "assay": "Greenhouse postemergence trial MATCH;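 note: greenhouse plants sprayed at second to third true leaf stage, injury rated by eye 20-22 d later versus solvent-blank controls on 0–100 scale, 0 no injury, 100 complete kill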", "assay_type": "in vivo", "conditions": "Matricaria chamomilla, post-emergence; MATCH; Aminopyralid 10 g/ha; read-out: % visual injury Obs"}, "[8]": {"test_system": "Triticum aestivum (spring wheat, TRZAS)", "assay_type": "in vivo"}, "[9]": {"test_system": "Hordeum vulgare (spring barley, HORVS)", "assay_type": "in vivo", "description": "as §1, §2, §3, §4"}, "[10]": {"test_system": "Cyanus segetum (cornflower, CENCY)", "assay": "Greenhouse postemergence trial CENCY", "assay_type": "in vivo"}, "[11]": {"test_system": "Viola arvensis (field violet, VIOAR)", "assay": "Greenhouse postemergence trial VIOAR", "assay_type": "in vivo"}, "[12]": {"test_system": "Galium aparine (cleavers, GALAP)", "assay": "Greenhouse postemergence trial GALAP", "assay_type": "in vivo", "conditions": "c1-3 Compound A 7.5/10/15; c4 Aminopyralid 5; c5-7 A 7.5/10/15 + Aminopyralid 5 g/ha", "description": "as §1, §2, §3, §4"}, "[13]": {"test_system": "Veronica hederifolia (ivyleaf speedwell, VERHE)", "assay": "Greenhouse postemergence trial VERHE", "assay_type": "in vivo"}, "[14]": {"test_system": "Papaver rhoeas (corn poppy, PAPRH)", "assay": "Greenhouse postemergence trial PAPRH", "assay_type": "in vivo"}, "[15]": {"test_system": "Veronica persica (bird's-eye speedwell, VERPE)", "assay": "Greenhouse postemergence trial VERPE", "assay_type": "in vivo"}, "[16]": {"test_system": "Papaver rhoeas (corn poppy), herbicide-resistant (PAPRH-R)", "assay": "Greenhouse postemergence trial PAPRH-R", "assay_type": "in vivo"}, "[17]": {"test_system": "Capsella bursa-pastoris (shepherd's purse, CAPBP)", "assay": "Greenhouse postemergence trial CAPBP", "assay_type": "in vivo"}, "[18]": {"test_system": "Stellaria media (chickweed, STEME)", "assay": "Greenhouse postemergence trial STEME", "assay_type": "in vivo"}, "[19]": {"test_system": "Anthemis arvensis (field chamomile, ANTAR)", "assay": "Greenhouse postemergence trial ANTAR", "assay_type": "in vivo", "description": "as §1, §2, §3, §4"}, "[20]": {"test_system": "Matricaria discoidea (pineapple weed, MATMT)", "assay": "Greenhouse postemergence trial MATMT", "assay_type": "in vivo"}, "[21]": {"test_system": "Matricaria inodora (false chamomile, MATIN)", "assay": "Greenhouse postemergence trial MATIN", "assay_type": "in vivo"}, "[22]": {"test_system": "Triticum aestivum (winter wheat, TRZAW)", "assay": "Greenhouse postemergence crop phytotoxicity TRZAW", "assay_type": "in vivo"}, "[23]": {"test_system": "Hordeum vulgare (winter barley, HORVW)", "assay": "Greenhouse postemergence crop phytotoxicity HORVW", "assay_type": "in vivo", "description": "as §1, §2, §3, §4"}, "[24]": {"test_system": "Lamium purpureum (purple deadnettle, LAMPU)", "assay": "Greenhouse postemergence trial LAMPU", "description": "as §5, §6, §7, §4"}, "[25]": {"test_system": "Viola tricolor (wild pansy, VIOTR)", "assay": "Greenhouse postemergence trial VIOTR;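 note: greenhouse plants sprayed at second to third true leaf stage, injury rated visually after 20-22 d against solvent-blank sprayed controls, 0 meaning no injury and 100 complete kill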", "description": "as §1, §2, §3, §4"}, "[26]": {"conditions": "c1-3 Compound A 7.5/10/15, c4 Aminopyralid 5, c5-7 A 7.5/10/15 + Aminopyralid 5 g/ha"}, "[27]": {"conditions": "Papaver rhoeas, post-emergence, read-out: % visual injury Obs"}}, "data": [{"smiles": "Nc1cc(Cl)nc(C(=O)O)c1Cl", "note": "[Aminopyralid, aminopyralid, reference compound]", "values": [{"measurement": "plant injury at 10 g/ha", "setting": "[1]", "value": 10, "unit": "%"}, {"measurement": "pest or weed control at 10 g/ha", "setting": "[2]", "value": 75, "unit": "%"}, {"measurement": "pest or weed control at 10 g/ha", "setting": "[3]", "value": 60, "unit": "%"}, {"measurement": "pest or weed control at 10 g/ha", "setting": "[4]", "value": 20, "unit": "%"}, {"measurement": "pest or weed control at 10 g/ha", "setting": "[5]", "value": 20, "unit": "%"}, {"measurement": "pest or weed control at 10 g/ha", "setting": "[6]", "value": 10, "unit": "%"}, {"measurement": "pest or weed control at 10 g/ha", "setting": "[7]", "value": 10, "unit": "%"}, {"measurement": "% visual injury Obs", "setting": "[8]; TRZAS, Aminopyralid 10 g/ha", "value": 0, "unit": "%"}, {"measurement": "% visual injury (crop phytotoxicity)", "setting": "[8]; [26]", "value": 0, "unit": "%"}, {"measurement": "% visual injury Obs", "setting": "[9]; HORVS, Aminopyralid 10 g/ha", "value": 0, "unit": "%"}, {"measurement": "% visual injury (crop phytotoxicity)", "setting": "[9]; [26]", "value": 0, "unit": "%"}, {"measurement": "pest or weed control at 10 g/ha", "setting": "[10]; Centaurea cyanus, post-emergence, read-out: % visual injury Obs", "value": 65, "unit": "%"}, {"measurement": "% visual injury", "setting": "[10]; [26]", "value": 50, "unit": "%"}, {"measurement": "pest or weed control at 10 g/ha", "setting": "[11]; Viola arvensis, post-emergence, read-out: % visual injury Obs", "value": 10, "unit": "%"}, {"measurement": "% visual injury", "setting": "[11]; [26]", "value": 25, "unit": "%"}, {"measurement": "% visual injury", "setting": "[12]", "value": 60, "unit": "%"}, {"measurement": "pest or weed control at 10 g/ha", "setting": "[13]; Veronica hederifolia, post-emergence, read-out: % visual injury Obs", "value": 25, "unit": "%"}, {"measurement": "% visual injury", "setting": "[13]; [26]", "value": 0, "unit": "%"}, {"measurement": "pest or weed control at 10 g/ha", "setting": "[14]; [27]", "value": 65, "unit": "%"}, {"measurement": "% visual injury", "setting": "[14]; [26]", "value": 30, "unit": "%"}, {"measurement": "pest or weed control at 10 g/ha", "setting": "[15]; Veronica persica, post-emergence, read-out: % visual injury Obs", "value": 10, "unit": "%"}, {"measurement": "% visual injury", "setting": "[15]; [26]", "value": 0, "unit": "%"}, {"measurement": "pest or weed control at 10 g/ha", "setting": "[16]; [27]", "value": 65, "unit": "%"}, {"measurement": "% visual injury", "setting": "[16]; [26]", "value": 50, "unit": "%"}, {"measurement": "pest or weed control at 10 g/ha", "setting": "[17]; Capsella bursa-pastoris, post-emergence, read-out: % visual injury Obs", "value": 0, "unit": "%"}, {"measurement": "% visual injury", "setting": "[17]; [26]", "value": 0, "unit": "%"}, {"measurement": "pest or weed control at 10 g/ha", "setting": "[18]; Stellaria media, post-emergence, read-out: % visual injury Obs", "value": 5, "unit": "%"}, {"measurement": "% visual injury", "setting": "[18]; [26]", "value": 0, "unit": "%"}, {"measurement": "pest or weed control at 10 g/ha", "setting": "[19]; Anthemis arvensis, post-emergence, read-out: % visual injury Obs", "value": 60, "unit": "%"}, {"measurement": "% visual injury", "setting": "[19]; [26]", "value": 10, "unit": "%"}, {"measurement": "pest or weed control at 10 g/ha", "setting": "[20]; Matricaria discoidea, post-emergence, read-out: % visual injury Obs", "value": 0, "unit": "%"}, {"measurement": "% visual injury", "setting": "[20]; [26]", "value": 0, "unit": "%"}, {"measurement": "pest or weed control at 10 g/ha", "setting": "[21]; Tripleurospermum inodorum, post-emergence, read-out: % visual injury Obs", "value": 60, "unit": "%"}, {"measurement": "% visual injury", "setting": "[21]; [26]", "value": 10, "unit": "%"}, {"measurement": "% visual injury Obs", "setting": "[22]; TRZAW, Aminopyralid 10 g/ha", "value": 0, "unit": "%"}, {"measurement": "% visual injury (crop phytotoxicity)", "setting": "[22]; [26]", "value": 0, "unit": "%"}, {"measurement": "% visual injury Obs", "setting": "[23]; HORVW, Aminopyralid 10 g/ha", "value": 0, "unit": "%"}, {"measurement": "% visual injury (crop phytotoxicity)", "setting": "[23]; [26]", "value": 0, "unit": "%"}, {"measurement": "pest or weed control at 10 g/ha", "setting": "[24]; Lamium purpureum, post-emergence, read-out: % visual injury Obs", "value": 10, "unit": "%"}, {"measurement": "% visual injury", "setting": "[24]; [26]", "value": 0, "unit": "%"}, {"measurement": "pest or weed control at 10 g/ha", "setting": "[25]; Viola tricolor, post-emergence, read-out: % visual injury Obs", "value": 10, "unit": "%"}, {"measurement": "% visual injury", "setting": "[25]; [26]", "value": 0, "unit": "%"}]}]}
